# Columns and labels:
# [1] = test system: maximal electroshock (MES) induced seizure; test: maximal electroshock (MES) seizure test, mice (ip); assay type: in vivo; conditions: for MES, ED50 / PI protective index (TD50/MES ED50): mice; for MES, ED50 / ED50 / PI protective index (TD50/MES ED50): ip; for MES, ED50: at time of peak effect (hours in brackets); for ED50: Mus musculus; for Ratio to MES: i.p., Neurotox/MES (Table 6)
# Text: (§1) Compounds were screened for anticonvulsant activity in both male albino Carthworth Farms No. 1 mice (ip route) and male albino Sprague Dawley rats [oral (po) route]. Activity was established using the electrical (maximal electroshock or MES) test. In the MES test, a drop of electrolyte solution with anesthetic (0.5% butacaine hemisulfate in 0.9% sodium chloride) was used in the eyes of the animals prior to positioning the corneal electrodes and delivery of current. […] Protection endpoints were defined as the abolition of the hind limb tonic extensor component of the induced seizure. In mice, effects of compounds on forced spontaneous motor activity were determined using the rotorod test. […] Normally under these conditions, mice maintain their balance almost indefinitely. In rats, motor impairment is assessed by observing for overt evidence of ataxia, abnormal gait and stance, and/or loss of placing response and muscle tone. In the mouse identification screening study all compounds were given at three dose levels (30, 100, 300 mg/kg) and two time periods (0.5 hours, 4 hours). Typically, in the MES seizures test one animal was tested at 30 mg/kg and 300 mg/kg, and three animals at 100 mg/kg. In the rotored toxicity test four animals were tested at 30 mg/kg, and 300 mg/kg, and eight animals at 100 mg/kg.
# (§2) The quantitative determination of the median effective (ED50) and toxic doses (TD50) was conducted at previously calculated times of peak effect. Groups of at least eight animals were tested using different doses of test compound until at least two points wee determined between 100 and 0% protection and minimal motor impairment.
# [2] = test system: motor impairment; test: motor impairment (ataxia, gait, stance) observation, rats (po); assay type: in vivo; conditions: rat, po, at time of peak effect
# Text: (§3) Compounds were screened for anticonvulsant activity in both male albino Carthworth Farms No. 1 mice (ip route) and male albino Sprague Dawley rats [oral (po) route]. Activity was established using the electrical (maximal electroshock or MES) test. In the MES test, a drop of electrolyte solution with anesthetic (0.5% butacaine hemisulfate in 0.9% sodium chloride) was used in the eyes of the animals prior to positioning the corneal electrodes and delivery of current. A 60 cycle alternating current was administered for 0.2 sec. in both species, 50 mA in mice and 150 mA in rats. Protection endpoints were defined as the abolition of the hind limb tonic extensor component of the induced seizure. In mice, effects of compounds on forced spontaneous motor activity were determined using the rotorod test. […] Normally under these conditions, mice maintain their balance almost indefinitely. In rats, motor impairment is assessed by observing for overt evidence of ataxia, abnormal gait and stance, and/or loss of placing response and muscle tone. In the mouse identification screening study all compounds were given at three dose levels (30, 100, 300 mg/kg) and two time periods (0.5 hours, 4 hours). Typically, in the MES seizures test one animal was tested at 30 mg/kg and 300 mg/kg, and three animals at 100 mg/kg. In the rotored toxicity test four animals were tested at 30 mg/kg, and 300 mg/kg, and eight animals at 100 mg/kg.
# as §2, with “impairment. The dose of candidate substance required to produce the defined end-point in 50% of the animals in each test and the 95% confidence interval was calculated.” for “impairment.”
# [3] = rotorod neurologic toxicity test, mice (ip); assay type: in vivo; conditions: male, ip; for TD50: Carthworth Farms No. 1, mouse, in vivo, mice, rotorod test, at time of peak effect, read-out: tox, TD50
# Text: as §1
# as §2, with “impairment. The dose of candidate substance required to produce the defined end-point in 50% of the animals in each test and the 95% confidence interval was calculated.” for “impairment.”
# [4] = test system: liver microsomal system; test: 7-day liver microsomal studies; assay type: in vivo, rats
# Description: Two of the three groups of animals subjected to the hexobarbital sleep time test (chronically treated and vehicle control groups) were continued on their respective original treatment regimen for two days (days 6 and 7) and 24 hours later (day 8) subjected to liver microsomal studies. The rats were decapitated and the livers perfused with 0.9% sodium chloride solution. The livers were removed, weighed, and homogenized in 0.25M sucrose. Microsomes were prepared and their drug metabolizing capabilities (microsomal protein yield; cytochrome P-450 concentration; p-nitroanisole O-demethylase and NADPH cytochrome c reductase activities; norbenzphetamine MI complex formation; and glucuronyl transferase, erythromycin demethylase, and ethylmorphine demethylase activities) measured (Arch. Biochem. Biophys. 143: 318-329, 1971).
# [5] = test system: maximal electroshock (MES) induced seizure; test: 5-day chronic treatment tolerance study (MES test); assay type: in vivo; conditions: rats, 5 daily doses of 48 mg/kg
# Description: Compound C, i.e., N-acetyl-D, L-phenylglycine N-benzylamide was subjected to 5-day chronic treatment on anticonvulsant activity (maximal electroshock). 3 groups of 8 animals each were treated as follows. One group was given the MES ED50 of the test drug for 5 days; the second group was given the requisite volume of the vehicle (0.04 ml/10 g body wt.) for 4 days and a single dose (MES ED50) of the test drug on day 5; and the third group was given the requisite volume of the vehicle daily for 5 days. At the time of peak effect of the candidate substance on day 5, all groups were subjected to the MES test and the number of animals protected recorded. Seizure components of the unprotected animals were timed to the nearest 10th of a second and the extensor/flexor (E/F) ratio, S.E., and p value determined. Since extensor duration decreases and flexor duration increases as a maximal seizure is attenuated, the E/F ratio provides a measure of seizure severity.
# [6] = test system: maximal electroshock (MES) induced seizure; test: maximal electroshock (MES) seizure test, rats (po); assay type: in vivo; conditions: for ED50 / PI protective index (TD50/MES ED50) / MES, ED50: po; for Ratio to MES: oral, Neurotox/MES (Table 6)
# Text: as §1, §2
# [7] = motor impairment (ataxia, gait, stance) observation, rats (po); assay type: in vivo; conditions: male, Sprague Dawley, in vivo, rat; for TD50: po, at time of peak effect, read-out: tox, TD50
# Text: as §3
# as §2, with “impairment. The dose of candidate substance required to produce the defined end-point in 50% of the animals in each test and the 95% confidence interval was calculated.” for “impairment.”
# [8] = test system: hexobarbital sleep time; test: hexobarbital sleep time test; assay type: in vivo; conditions: rats, 5 daily doses of 48 mg/kg
# Description: All rats subjected to the 5-day tolerance studies were maintained in their home cage for 24 hours and then subjected to the hexobarbital sleep time test (day 6). Each rat in each of the 3 groups was given 100 mg/kg of hexobarbital (i.p.) and the sleep time measured to the nearest minute. The mean sleep time and S.E. for each group were calculated.
# [9] = test system: motor impairment (rotorod test); test: rotorod neurologic toxicity test, mice (ip); assay type: in vivo; conditions: for tox, TD50: mice, ip, rotorod test, at time of peak effect
# Text: as §1
# as §2, with “impairment. The dose of candidate substance required to produce the defined end-point in 50% of the animals in each test and the 95% confidence interval was calculated.” for “impairment.”
# [10] = test system: liver; test: liver toxicity evaluation of D-furyl derivative, oral gavage to rats; assay type: in vivo
# Description: Compound C, i.e., D-(−)-α-acetamido-N-benzyl-2-furanacetylamide was evaluated for liver toxicity using the procedures described hereinabove. More specifically, various dosages such as 25 mg/kg, 100 mg/kg, 500 mg/kg of the drug was administered by oral gavage to rats for a set period of time. The rats were housed separately. The rats were periodically viewed for mortality and moribundity. At the termination of the study, the surviving rats were anesthetized, and exsanguinated under anesthesia.
# [11] = liver microsomes, rats, p.o., 48 mg/kg, Treated 7 Days
# [12] = rats, p.o., 48 mg/kg, Treated 7 Days
# [13] = rat, at time of peak effect, read-out: MES, ED50
smiles,measurement,setting,value
"COC(NC(C)=O)C(=O)NCc1ccccc1 (racemic) [compound 4, D,L-2-Acetamido-N-benzyl-2-methoxyacetamide]","MES, ED50",[1],98.30 mg/kg
"COCC(NC(C)=O)C(=O)NCc1ccccc1 (racemic) [compound 9, N-Benzyl 2-Acetamido-3-methoxypropionamide(racemic mixture)]","tox, TD50",[2],386.8 [1] mg/kg
"CC(=O)NC(C(=O)NCc1ccccc1)c1ccccc1 (racemic) [compound 13, N-Acetyl-D,L-phenylglycine-N-benzylamide]",ED50,"[3]; Carthworth Farms No. 1, in vivo, mouse, i.p., rotorod test at peak effect (Table 6), read-out: MOUSE ED50 Neurotox",96.9 mg/kg
same,TD50,[3],96.9 mg/kg
same,Cytochrome P-450,[4]; [11],0.71 ± 0.06 nmol/mg
same,Erythromycin demethylase,[4]; [11],0.64 ± 0.07 nmol/mg/min
same,Ethylmorphine demethylase,[4]; [11],6.75 ± 0.37 nmol/mg/min
same,Glucoronyl Transferase,[4]; [11],9.77 ± 0.23 nmol/mg/min
same,NADPH Cytochrome c reductase,[4]; [11],160.3 ± 5.2 nmol/mg/min
same,Norbenzphetamine MI Complex,[4]; [11],0.023 ± 0.003 nmol/mg/min
same,Total Protein,[4]; [11],31.7 ± 1.4 mg
same,p-nitroanisole O-demethylase,[4]; [11],0.82 ± 0.12 nmol/mg/min
same,Liver Pathology Report,"[4]; rat, oral, 48 mg/kg/day × 7 days",liver enzyme induction
same,Safety Ratio daily dose; MES,"[4]; rat, oral, 48 mg/kg/day × 7 days vs oral MES ED50",−1
same,induction of liver microsomal enzyme systems,"[4]; rats, chronic administration, 48 mg/kg, 7 days",induces some liver microsomal enzyme systems
same,Body Weight,[4]; [12],146.3 ± 3.8 g
same,Liver Weight,[4]; [12],8.54 ± 0.26 g
same,effect of chronic treatment on anticonvulsant activity,[5],does not affect
same,ED50,"[1]; read-out: MES, ED50",20.3 mg/kg
same,ED50,[1]; read-out: MOUSE anticonvulsant dose ED50 MES,20.3 mg/kg
same,PI protective index (TD50/MES ED50),[1],4.77
same,Ratio to MES,[1]; mouse,4.8
same,ED50,"[6]; Rattus norvegicus, read-out: RAT anticonvulsant ED50 MES",48.3 mg/kg
same,ED50,"[6]; Rattus norvegicus, Rats, p.o., TPE 4 hrs (Table 4 head), read-out: ED50",48 mg/kg
same,Ratio to MES,[6]; rat,20.7
same,PI protective index (TD50/MES ED50),[6]; rat,>20.7
same,ED50,[6]; [13],48.3 mg/kg
same,ED50,"[7]; oral (Table 6), read-out: RAT ED50 Neurotox",> 1000 mg/kg
same,TD50,[7],> 1000 mg/kg
same,effect of chronic treatment on hexobarbital sleep time,[8],does not affect
"COC[C@@H](NC(C)=O)C(=O)NCc1cccc(F)c1 [Ex. 3, R-N-(3-Fluorobenzyl)2-Acetamide-3-Methoxypropionamide]","tox, TD50",[9],46.3 [0.25] mg/kg
same,PI protective index (TD50/MES ED50),[1],6.7
same,"MES, ED50",[1],6.9 [0.25] mg/kg
same,PI protective index (TD50/MES ED50),[6]; rat,>57.7
same,"MES, ED50","[6]; rat, at time of peak effect",6.9 [0.5] mg/kg
same,"tox, TD50",[2],>396 [0.5] mg/kg
"COC[C@@H](NC(C)=O)C(=O)NCc1ccc(F)cc1 [Ex. 4, (R)-N-(4-Fluorobenzyl)2-Acetamido-3-Methoxypropanamide]","tox, TD50",[9],27.8 [0.25] mg/kg
same,ED50,"[1]; read-out: MES, ED50",4.2 mg/kg
same,PI protective index (TD50/MES ED50),[1],6.6
same,ED50,[6]; [13],2.6 mg/kg
same,melting point,,144 to 145 °C
same,TD50,[7],125 to 250 mg/kg
"CC(=O)N[C@H](C)C(=O)NCc1ccccc1 [compound 2, N-Acetyl-D-alanine-N′-benzylamide]","tox, TD50",[9],2.14 [0.5] mg/kg
same,PI protective index (TD50/MES ED50),[1],3.9
same,"MES, ED50",[1],54.8 [0.5] mg/kg
same,PI protective index (TD50/MES ED50),[6]; rat,>35.2
same,"MES, ED50","[6]; rat, at time of peak effect",28.4 [4] mg/kg
"CC(=O)N[C@@H](C)C(=O)NCc1ccccc1 [compound 3, N-Acetyl-L-alanine-N′-benzylamide]","tox, TD50",[9],841 [0.5] mg/kg
same,PI protective index (TD50/MES ED50),[1],1.5
same,"MES, ED50",[1],548 [0.5] mg/kg
"CC(=O)NC(C(=O)NCc1ccccc1)c1ccco1 (stereo not drawn) [compound 5, (D,L)-α-Acetamido-N-benzyl-2-furanacetamide]","tox, TD50",[9],˜40 mg/kg
same,PI protective index (TD50/MES ED50),[1],>3.9
same,"MES, ED50",[1],10.3 mg/kg
"CC(=O)N[C@@H](C(=O)NCc1ccccc1)c1ccco1 [compound 6, (D)-(−)α-Acetamido-N-benzyl-2-furanacetamide]","tox, TD50",[9],23.8 mg/kg
same,MOUSE ED50 Neurotox,"[9]; mouse, i.p., rotorod test at peak effect (Table 6)",23.8 mg/kg
same,Safety Ratio daily dose; MES,"[10]; rat, oral, 25 mg/kg/day × 30 days vs oral MES ED50",12.7
same,safety ratio for histologic signs of liver toxicity (hepatocellular necrosis),[10]; rats,12.7
same,hepatocellular necrosis,"[10]; rats, 100 and 25 mg/kg, treated for 13 weeks",hepatocellular necrosis was evident
same,PI protective index (TD50/MES ED50),[1],>.2
same,"MES, ED50",[1],3.3 mg/kg
same,MOUSE anticonvulsant dose ED50 MES,"[1]; mouse, i.p. (Table 6)",3.3 mg/kg
same,Ratio to MES,[1]; mouse,7.2
same,RAT anticonvulsant ED50 MES,"[6]; rat, oral (Table 6)",1.97 mg/kg
same,Ratio to MES,[6]; rat,175
"CC(=O)N[C@H](C(=O)NCc1ccccc1)c1ccco1 [compound 7, (L)-(+)-α-Acetamido-N-benzyl-2-furanacetamide]","tox, TD50",[9],>200 mg/kg
same,"MES, ED50",[1],>25. mg/kg
"CC(=O)NC(CO)C(=O)NCc1ccccc1 (stereo not shown) [compound 8, N-Benzyl 2-Acetamidohydracrylamide]",TD50,[3],> 300 mg/kg
same,ED50,"[1]; read-out: MES, ED50",100 to 300 mg/kg
same,melting point,,201 to 203 °C
"COC[C@H](NC(C)=O)C(=O)NCc1ccccc1 [compound 11, (S)-N-Benzyl 2-Acetamido-3-methoxypropionamide]",TD50,[3],> 300 mg/kg
same,ED50,"[1]; read-out: MES, ED50",100 to 300 mg/kg
same,ED50,[6]; [13],> 30 mg/kg
same,TD50,[7],> 30 mg/kg
"CC(=O)N[C@H](CO)C(=O)NCc1ccccc1 [compound 12, (R)-N-Benzyl 2-Acetamidohydracylamide]","tox, TD50",[9],>500 [2] mg/kg
same,PI protective index (TD50/MES ED50),[1],>9.4
same,"MES, ED50",[1],53.4 [2] mg/kg

# Source: patent publication USRE38551E1, “Anticonvulsant enantiomeric amino acid derivatives” (priority 1996, dated 2004)
